`Cc1c(CCNC(=O)OC(C)(C)C)c2cc(S(=O)(=O)c3ccc(C(F)(F)F)cc3)ccc2n1C` gave a melting point of 124 to 128 °C.
`CCCc1nc2cccc(C(=O)OC)c2n1Cc1ccc(-c2ccccc2-c2nnn[nH]2)cc1` registered a melting point of 195 to 196 °C.
`CCc1nc(C2CC2)c[nH]1` came in with a melting point of 104 to 106 °C.
Regarding `NCCc1c[nH]c2ccc3c(=O)n(CCc4ccccc4)ccc3c12`, the melting point lay in the range of 162 to 166 °C.
The compound `NC(=O)c1ccc2nc3sc(-c4ccccc4)cc3c(=O)n2c1` displayed a melting point of 348 to 352 °C.
On to `CC(C)CCc1c(-c2ccc(S(C)(=O)=O)cc2)cnn(-c2ccc(F)cc2)c1=O`, for which the melting point was in the range of 151 to 154 °C.
In the case of `Cc1noc([C@@H](Cc2ccccc2)NC(=O)[C@@H](Cc2ccc3ccccc3c2)NC(=O)C=CC(C)(C)NC(=O)OC(C)(C)C)n1` it was 161 to 167 °C; in that of `O=C(O)CC[C@@H](C(=O)OCc1ccccc1)n1c2ccccc2c2ccccc21`, 100 °C; in that of `Nc1cc(C(=O)O)cc(S(N)(=O)=O)c1Oc1ccc(OCc2ccccc2)cc1`, 264 to 265 °C.
Turning to `CC(=O)Oc1ccc2nc(C#N)nc(Cl)c2c1`, the melting point lay within 145 to 147 °C.
In turn, `O=C(Nc1cccc2c1C(=O)c1c-2n[nH]c1-c1ccc(N2CCNCC2)cc1)NN1CCC[C@@H]1COCc1ccccc1` came in with a melting point of 207 °C.
In the case of `CCOc1ccccc1N(C[C@H]1CCC[C@H](CN(C(=O)Nc2ccc(N(C)C)cc2)c2ccccc2OCC)C1)C(=O)Nc1ccc(N(C)C)cc1` (relative stereo), the melting point was in the range of 130 to 135 °C.
In turn, `NC(=O)N1C(=O)C(C(=O)c2cccs2)c2nc(Cl)c(Cl)cc21` (centres undefined) registered a melting point of 237 to 240 °C.
`Cn1cc(C(=O)O)c(=O)c2c3cc(F)c(N4CCCC4)cc3ncc21`: the melting point came out at 365 °C.
For the compound `Cn1c2cc(C=O)ccc2c2nc3ccccc3nc21`, the melting point lay in the range of 237 to 238 °C.
The same measure for `O=C1CC2(CN1)CC(O)c1cc(Cl)ccc12` (centres undefined): 172 to 174 °C; for `CCC(=O)C(CC(=O)c1ccccc1)C(O)=S` (centres undefined): 110 to 112 °C.
Compound `N#Cc1cnn2c1N(C(=O)CCl)CC=C2c1ccc(Cl)cc1` gave a melting point of 198 to 199 °C.
On to `COc1cc2ncc(C#N)c(Nc3ccc(O)cc3O)c2cc1OC`, for which the melting point is above 250 °C.
`CCCCOC(=O)N1CCSCC1` registered a melting point of 72.9 to 78.9 °C.
Compound `CCOc1cc2c(cc1OC)C(c1ccc(C(=O)O)cc1)=N[C@@H]1CCOC[C@H]21` registered a melting point of 203 to 205 °C.
Take `NS(=O)(=O)c1cccc2c1C(Cl)=CC2`: the melting point lay in the range of 100 to 101 °C.
For `CC(C)(C)OC(=O)N1[C@@H](Cc2cccc(C3CCC3)c2)C(=O)O[C@H](c2ccccc2)[C@@H]1c1ccccc1`, the melting point lay within 145 to 147 °C.
For `CC(=O)OCC1=C(C(=O)OC(C)(C)C)N2C(=O)C(NC(=O)Cn3ccnc3S(C)(=O)=O)C2SC1` (centres undefined), the melting point is 164 °C.
As for `CC1(C)NC(=O)N(c2ccc(C#N)c(C(F)(F)F)c2)C1=O`, the melting point was found to be 210 °C.
`CCOCc1nc2c(N)nc(C)c(C)c2n1Cc1cc(-c2cccnc2)no1` showed a melting point of 189 to 191 °C.
`Clc1ccc2c(c1)C(c1ccccc1Cl)=NCc1cncnc1-2` had a melting point of 120 to 121 °C.
The same measure for `CCOC(=O)CNC(=O)N(CC(=O)OCC)Cc1ccccc1`: 64 to 65 °C; for `N#Cc1cc(-c2ccoc2)c2ccc(OCc3cccc(-c4ccc(Cl)cc4)n3)cc2c1`: 174 to 177 °C; for `CC(=O)Nc1ccc(C=CC(=O)O)c(NC(=O)NC(=O)c2cc(F)c(F)cc2Cl)c1`: 196 °C.
The same measure for `O=c1oc2c(-c3ccccc3)cccc2c(O)c1-c1ccccc1`: 211 °C; for `NCCNS(=O)(=O)c1cc(NC(=O)c2cnn3c(C(F)F)cc(-c4ccc(C(F)(F)F)cc4)nc23)c(Cl)s1`: 150 °C.
Compound `CCOC(=O)Cc1ccc2c(c1)C(=O)C(NC(=O)OC)CC2` (centres undefined) showed a melting point of 95 to 97 °C.
In the case of `O=C([C@@H]1CCCN1C(=O)OCc1ccccc1)N1CCOCC1` it was 139 to 140 °C; in that of `Cc1c(C#N)sc2nc(-c3ccc(Cl)cc3)nc(N3CCN(C)CC3)c12`, 209 to 210 °C.
The same measure for `CC(=O)N1CCc2nc(N)nc(-c3ccc(Cl)cc3)c2C1`: 218 to 220 °C; for `c1ccc([C@H]2OC[C@@H](OCc3ccccn3)CO2)cc1`: 95 to 98 °C.
Turning to `CCOc1cc2c(Nc3cc(OC)c(Cl)cc3Cl)c(C#N)cnc2cc1I`, the melting point was 213 to 215 °C.
In turn, `O=C(CC(c1ccccc1)(c1ccccc1)c1ccccc1)N1CCC(O)(Cc2ccccc2)CC1` gave a melting point of 150 to 166 °C.
For `CS(=O)(=O)CC(=O)N[C@H]1CC[C@H](CCN2CCN(c3nccc4c3CCO4)CC2)CC1`, the melting point was 260 °C.
As for `CCCNC1=NS(=O)(=O)c2sc(C)cc2N1`, the melting point lay in the range of 263 to 264 °C.
In the case of `O=C(O)c1[nH]c2cc(Br)c(Cl)cc2c1-c1ccccc1`, the melting point lay within 241 to 242 °C.
The same measure for `CC(C)(CO)NS(=O)(=O)c1cccc(NC(=O)c2cnn3c(C(F)F)cc(-c4ccc(Cl)cc4)nc23)c1`: 229 °C; for `COc1cccc(C(C[N+](=O)[O-])C2CCCCC2=O)c1` (racemic): 125 to 126 °C.
Turning to `C#CCCCc1c2c(nn1CCC)c(N)nc1ccccc12`, the melting point lay in the range of 144 to 145 °C.
In turn, `CNn1cc(-c2ccccc2)c2ccccc21` returned a melting point of 60 to 62 °C.
Regarding `CSC=CC(C)(C)C(=O)Nc1ccc(Cl)cc1`, the melting point was 105 to 106 °C.
The compound `CC(C)(CCc1ccc(OCCO)cc1)NCC(O)c1ccccc1` (centres undefined) had a melting point of 118 to 120 °C.
As for `C=CCOC(=O)c1ccc(OC(=O)c2ccc(O)c(C34CC5CC(CC(C5)C3)C4)c2)cc1`, the melting point fell in the range of 175 to 177 °C.
Take `CCc1nc2c(Cl)nc(C)cc2n1Cc1ccccc1`: the melting point is 140 to 141 °C.
The same measure for `CN1CCC(=C2c3ccc(Cl)cc3C(=NO)Cc3cccnc32)CC1`: 172 to 175 °C.
Turning to `Cc1c[nH]c(-c2c(Cl)cc(C(F)(F)F)cc2Cl)n1`, the melting point lay within 211 to 212 °C.
Compound `CCOC(=O)C(NC(C)=O)(C(=O)OCC)C1=Nc2ccc(Br)cc2C(c2ccccn2)=NC1` came in with a melting point of 178 to 180 °C.
Compound `CCC1(O)CC(OC2CC(N(C)C)C(OC3CC(O)C(O)C(C)O3)C(C)O2)c2c(cc3c(c2O)C(=O)c2c(O)ccc(O)c2C3=O)C1C(=O)OC` (centres undefined) showed a melting point of 162 to 163 °C.
For the compound `CCCC(C)(O)C(=O)Nc1ccnc(C(=O)OC)c1` (centres undefined), the melting point amounted to 122 °C.
The same measure for `COc1cccc(CN2CCC3(CC2)CSC2=C(O3)c3ccccc3C(=O)C2=O)c1`: 129 to 131 °C.
Compound `COc1cc2c(cc1Cl)CCNCC2c1ccc(Br)cc1` (centres undefined) returned a melting point of 139 to 140 °C.
`CC(C)(C)c1cc(SCCC(=O)O)cc(C(C)(C)C)c1O` came in with a melting point of 108 to 110 °C.
Consider `C=CC[C@@H](C(=O)N[C@H](C(=O)N[C@H](C)c1ccccc1)C(C)(C)C)[C@H](OCC)C(=O)OC`, for which the melting point was 131 to 134 °C.
Take `Nc1sc2c(c1C(=O)c1ccc(I)cc1)CCN(C(=O)Nc1ccccc1)C2`: the melting point lay in the range of 89 to 90 °C.
Turning to `O=Cc1c(Cl)nc2n(c1=O)CCS2`, the melting point lay within 152 to 154 °C.
In the case of `CC(C)[C@H]1c2ccc(F)cc2CC[C@]1(O)CCNCc1nc2ccccc2s1`, the melting point was 102 to 103 °C.
In turn, `CCc1cc(C(=O)c2ccccc2Cl)c(-n2c(C)nnc2CNC(=O)c2cc3ccccc3n2CCC(=O)OC)s1` gave a melting point of 67 to 68 °C.
With `CCCNS(=O)(=O)c1cc(C(=O)CCC(=O)O)ccc1Cl`, the melting point was determined as 106 °C.
As to `Cc1cc(-c2cc(C(F)(F)F)n3ncc(C(=O)Nc4nc(C)c(S(=O)(=O)NC(C)(C)CO)s4)c3n2)ccc1C(F)(F)F`, the melting point turned out to be 272 °C.
As for `COc1cc2nc(N3CCN(C(=O)c4ccco4)CC3)[nH]c2cc1OC`, the melting point fell in the range of 143 to 145 °C.
As to `N#CCCCCCCCCn1nnc(-c2ccccc2)c1-c1ccccc1`, the melting point lay within 77 to 78 °C.
In turn, `CNc1c(C)c(C)c(OC(C)=O)c(C)c1[N+](=O)[O-]` showed a melting point of 143 to 146 °C.
`Cc1ccccc1C(CCC(=O)O)Oc1cc(OCc2ccsc2)ccc1C(=O)C=Cc1ccccn1` (racemic) registered a melting point of 65 to 70 °C.
Consider `COc1ccc(-c2cc(-c3ccccc3)[nH]c2C(=O)Nc2ccc(C(=O)NO)o2)cc1`, for which the melting point was 160 to 162 °C.
In the case of `CN1C(=O)CN=C(c2ccccc2F)c2cc(NC(=O)NCc3ccccc3)ccc21` it was 174 to 178 °C; in that of `CCOCC1(C)CCCSc2cc(C#Cc3ccc(C(=O)O)cc3)ccc21` (centres undefined), 154 to 155 °C.
In the case of `CC(=O)Nc1cc(O)c(C(=O)O)cc1NC(=N)N` it was 334 to 357 °C.
Turning to `CCC(C)c1ccc(-n2c(-c3cc(C)c(OCCO)c(C)c3)nc3c(OC)cccc3c2=O)cc1` (centres undefined), the melting point lay in the range of 158 to 159 °C.
For `CCCCCCCCS(=O)(=O)NCCC(=O)O`, the melting point came to 122 °C.
As for `CCn1nc(C(F)(F)F)c(CS(=O)(=O)C2=NOC(C)(CCl)C2)c1Cl` (centres undefined), the melting point was in the range of 123 to 124 °C.
Compound `CCN(CC)S(=O)(=O)c1cc2[nH]c(=O)c(=O)[nH]c2cc1[N+](=O)[O-]` yielded a melting point above 360 °C.
The same measure for `CCCc1nnc(/C=C/c2cn(-c3ccccc3)nc2OCc2ccc(OCc3nc(-c4ccco4)oc3C)c(OC)c2)o1`: 165 to 166 °C.
Turning to `CCCCc1c2ccccc2c(C=O)c2ccccc12`, the melting point was determined as 79 °C.
The compound `CCCCCc1ccc(C(=O)Cc2cccc(C(=O)O)c2)cc1` gave a melting point of 109 to 111 °C.
`CCn1cc(C(=O)NCc2ccc(Cl)cc2)c(=O)c2cc(CN3CCOCC3)sc21`: the melting point was in the range of 194 to 196 °C.
In the case of `COc1cc(C(=O)N2CCC(CCN3CCC(C(=O)c4nc5ccccc5n4Cc4ccc(F)cc4)CC3)(c3ccc(Cl)c(Cl)c3)C2)cc(OC)c1OC` (centres undefined) it was 87 to 90 °C.
In turn, `CS(=O)(=O)c1ccc(-c2cnn(-c3cccc(Cl)c3)c(=O)c2Cc2ccc(F)cc2)cc1` showed a melting point of 183 to 185 °C.
In turn, `c1ccc2c(c1)c1ccccc1c1[nH]cnc21` gave a melting point above 375 °C.
